Biological target: T1, Sodium/glucose cotransporter 1 (Homo sapiens, UniProt P13866)
T1 sequence (P13866 whole entry): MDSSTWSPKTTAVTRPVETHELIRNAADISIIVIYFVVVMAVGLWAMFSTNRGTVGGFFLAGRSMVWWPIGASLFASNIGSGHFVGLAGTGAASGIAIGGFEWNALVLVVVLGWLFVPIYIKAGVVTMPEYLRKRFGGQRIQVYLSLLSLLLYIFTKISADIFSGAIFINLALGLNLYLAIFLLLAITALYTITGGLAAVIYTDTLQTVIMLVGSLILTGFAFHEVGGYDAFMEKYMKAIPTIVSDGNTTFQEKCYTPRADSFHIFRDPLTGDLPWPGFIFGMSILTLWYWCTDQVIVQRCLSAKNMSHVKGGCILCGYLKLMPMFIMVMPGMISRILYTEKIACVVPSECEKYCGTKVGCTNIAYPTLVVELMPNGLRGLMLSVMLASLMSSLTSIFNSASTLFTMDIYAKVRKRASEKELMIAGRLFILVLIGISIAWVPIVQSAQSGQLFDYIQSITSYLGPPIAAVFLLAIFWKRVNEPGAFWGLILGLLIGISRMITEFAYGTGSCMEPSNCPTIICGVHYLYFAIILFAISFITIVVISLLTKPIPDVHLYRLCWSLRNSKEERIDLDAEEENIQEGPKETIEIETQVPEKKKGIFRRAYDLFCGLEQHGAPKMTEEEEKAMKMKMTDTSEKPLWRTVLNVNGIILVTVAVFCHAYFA
Assay: Inhibition of human SGLT1 expressed in CHOK1 cells assessed as inhibition of [14C]-AMG uptake after 3 hrs by microbeta scintillation counting analysis

Row | Structure (SMILES) | IC50 [µM]
1 | O=c1n(Cc2cc([C@@H]3O[C@H](CO)[C@@H](O)[C@H](O)[C@H]3O)ccc2Cl)nc2ccc(C(F)(F)F)cn12 [US8575114, I-5] | > 90
2 | O=c1n(Cc2cc([C@@H]3O[C@H](CO)[C@@H](O)[C@H](O)[C@H]3O)ccc2Cl)nc2ccc(CO)cn12 [US8575114, I-6] | > 90
3 | Cc1cc2nn(Cc3cc([C@@H]4O[C@H](CO)[C@@H](O)[C@H](O)[C@H]4O)ccc3Cl)c(=O)n2cc1Cl [US8575114, I-12] | > 90

Reference: BindingDB's records for doi:10.1016/j.bmc.2014.04.036 (Amri, 2014)
